In article PMC7206119, “RIP1 inhibition blocks inflammatory diseases but not tumor growth or metastases” (Cell Death and Differentiation, 2019):

Key:
Assay in all cases: biochemical
Design in all cases: DiscoverX kinase panel, active-site competition binding (KINOMEscan type), percent of control at one concentration
Conditions in all cases: competition binding, percent of control
GCN2(Kin.Dom.2,S808G) = target: T1, GCN2(Kin.Dom.2,S808G) (Homo sapiens, UniProt Q9P2K8, S808G)
T1 construct: gene EIF2AK4; Kin.Dom.2

[1] = target: T2, ABL1(T315I)-phosphorylated (Homo sapiens, UniProt P00519, T315I)
T2 construct: phosphorylated

PIK3CA(I800L) = PIK3CA(I800L) (Homo sapiens, UniProt P42336, I800L)
PIK3CA(I800L), sequence (P42336 whole entry I800L): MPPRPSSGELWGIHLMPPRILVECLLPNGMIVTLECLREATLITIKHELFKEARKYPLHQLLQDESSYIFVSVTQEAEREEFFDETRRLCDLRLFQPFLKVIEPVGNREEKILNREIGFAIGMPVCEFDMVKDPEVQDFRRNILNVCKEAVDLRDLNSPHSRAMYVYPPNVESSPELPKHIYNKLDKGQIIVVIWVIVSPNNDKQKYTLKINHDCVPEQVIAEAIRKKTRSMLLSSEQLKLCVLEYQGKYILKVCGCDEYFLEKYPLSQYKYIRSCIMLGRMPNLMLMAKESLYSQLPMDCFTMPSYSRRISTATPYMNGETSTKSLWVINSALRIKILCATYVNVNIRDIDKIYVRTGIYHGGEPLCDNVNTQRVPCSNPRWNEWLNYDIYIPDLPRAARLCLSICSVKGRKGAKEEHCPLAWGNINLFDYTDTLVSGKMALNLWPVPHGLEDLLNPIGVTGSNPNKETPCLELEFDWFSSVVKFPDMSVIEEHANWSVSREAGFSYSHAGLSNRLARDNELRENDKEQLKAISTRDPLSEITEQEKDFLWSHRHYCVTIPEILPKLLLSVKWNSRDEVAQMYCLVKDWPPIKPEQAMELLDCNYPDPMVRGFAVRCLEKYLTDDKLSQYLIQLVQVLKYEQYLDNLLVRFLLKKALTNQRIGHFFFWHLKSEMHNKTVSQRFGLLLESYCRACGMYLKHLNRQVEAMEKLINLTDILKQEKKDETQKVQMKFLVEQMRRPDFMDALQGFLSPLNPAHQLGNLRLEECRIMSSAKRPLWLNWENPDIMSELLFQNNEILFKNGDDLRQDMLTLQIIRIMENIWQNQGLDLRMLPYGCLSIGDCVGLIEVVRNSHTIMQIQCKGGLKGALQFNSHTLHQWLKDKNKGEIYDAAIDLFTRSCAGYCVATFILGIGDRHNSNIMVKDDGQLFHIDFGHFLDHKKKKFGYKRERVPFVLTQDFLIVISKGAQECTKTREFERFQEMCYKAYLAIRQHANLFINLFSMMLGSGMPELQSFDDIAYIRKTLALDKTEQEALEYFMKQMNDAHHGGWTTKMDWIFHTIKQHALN

FLT3(ITD,D835V) = FLT3(ITD,D835V) (Homo sapiens, UniProt P36888, D835V/ITD)
NIM1 = target: T3, NIM1 (Homo sapiens, UniProt Q8IY84)
T3 construct: gene NIM1K

MAPKAPK5 = MAPKAPK5 (Homo sapiens, UniProt Q8IW41)
FLT3(N841I) = FLT3(N841I) (Homo sapiens, UniProt P36888, N841I)
[2] = target: T4, ABL1(F317I)-phosphorylated (Homo sapiens, UniProt P00519, F317I)
T4 construct: phosphorylated

SRPK2 = SRPK2 (Homo sapiens, UniProt P78362)
ARK5 = target: T5, ARK5 (Homo sapiens, UniProt O60285)
T5 construct: gene NUAK1
T5 sequence (O60285 whole entry): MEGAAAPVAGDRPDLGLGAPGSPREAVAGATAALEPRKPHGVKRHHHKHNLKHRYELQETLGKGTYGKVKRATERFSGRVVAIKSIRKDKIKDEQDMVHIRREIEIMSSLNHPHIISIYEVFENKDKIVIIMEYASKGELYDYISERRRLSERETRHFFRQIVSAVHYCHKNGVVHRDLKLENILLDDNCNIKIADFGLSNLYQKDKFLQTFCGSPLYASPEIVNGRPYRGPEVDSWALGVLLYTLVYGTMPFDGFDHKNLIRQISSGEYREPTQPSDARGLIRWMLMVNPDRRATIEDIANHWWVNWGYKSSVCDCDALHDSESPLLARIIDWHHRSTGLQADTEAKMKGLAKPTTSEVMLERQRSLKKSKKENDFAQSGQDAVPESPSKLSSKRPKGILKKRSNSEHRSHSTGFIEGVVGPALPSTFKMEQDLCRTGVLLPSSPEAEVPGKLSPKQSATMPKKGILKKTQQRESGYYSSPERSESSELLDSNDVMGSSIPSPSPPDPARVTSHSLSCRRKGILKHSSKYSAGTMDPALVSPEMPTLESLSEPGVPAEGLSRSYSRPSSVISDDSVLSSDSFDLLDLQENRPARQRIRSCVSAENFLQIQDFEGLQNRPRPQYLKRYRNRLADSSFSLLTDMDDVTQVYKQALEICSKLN

ACVRL1 = ACVRL1 (Homo sapiens, UniProt P37023)
EPHB3 = EPHB3 (Homo sapiens, UniProt P54753)
TXK = TXK (Homo sapiens, UniProt P42681)
TXK, sequence (P42681 whole entry): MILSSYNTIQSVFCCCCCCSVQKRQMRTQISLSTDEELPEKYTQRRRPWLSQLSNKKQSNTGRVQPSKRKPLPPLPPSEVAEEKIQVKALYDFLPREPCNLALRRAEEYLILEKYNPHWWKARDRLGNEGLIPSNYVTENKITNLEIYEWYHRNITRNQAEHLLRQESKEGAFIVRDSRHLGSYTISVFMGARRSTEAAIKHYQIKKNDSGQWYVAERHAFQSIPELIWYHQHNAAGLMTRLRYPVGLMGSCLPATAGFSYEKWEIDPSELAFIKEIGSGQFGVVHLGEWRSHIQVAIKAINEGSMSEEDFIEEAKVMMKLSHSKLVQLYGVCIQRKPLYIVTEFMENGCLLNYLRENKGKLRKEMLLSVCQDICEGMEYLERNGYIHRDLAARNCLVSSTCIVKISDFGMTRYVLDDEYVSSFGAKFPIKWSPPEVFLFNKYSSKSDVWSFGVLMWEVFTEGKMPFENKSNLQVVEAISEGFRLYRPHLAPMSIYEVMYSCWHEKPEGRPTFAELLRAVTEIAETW

PFTAIRE2 = target: T6, PFTAIRE2 (Homo sapiens, UniProt Q96Q40)
T6 construct: gene CDK15

TSSK3 = TSSK3 (Homo sapiens, UniProt Q96PN8)
TSSK3, sequence (Q96PN8 whole entry): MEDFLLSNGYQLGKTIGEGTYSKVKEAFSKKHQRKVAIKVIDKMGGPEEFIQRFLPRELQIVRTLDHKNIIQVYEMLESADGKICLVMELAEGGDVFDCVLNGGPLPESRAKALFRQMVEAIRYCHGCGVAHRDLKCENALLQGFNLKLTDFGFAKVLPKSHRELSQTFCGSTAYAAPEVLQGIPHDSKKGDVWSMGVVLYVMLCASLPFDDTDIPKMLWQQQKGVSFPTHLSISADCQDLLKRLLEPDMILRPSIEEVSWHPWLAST

CLK1 = CLK1 (Homo sapiens, UniProt P49759)
DYRK1A = DYRK1A (Homo sapiens, UniProt Q13627)
PLK4 = PLK4 (Homo sapiens, UniProt O00444)
PLK4, sequence (O00444 whole entry): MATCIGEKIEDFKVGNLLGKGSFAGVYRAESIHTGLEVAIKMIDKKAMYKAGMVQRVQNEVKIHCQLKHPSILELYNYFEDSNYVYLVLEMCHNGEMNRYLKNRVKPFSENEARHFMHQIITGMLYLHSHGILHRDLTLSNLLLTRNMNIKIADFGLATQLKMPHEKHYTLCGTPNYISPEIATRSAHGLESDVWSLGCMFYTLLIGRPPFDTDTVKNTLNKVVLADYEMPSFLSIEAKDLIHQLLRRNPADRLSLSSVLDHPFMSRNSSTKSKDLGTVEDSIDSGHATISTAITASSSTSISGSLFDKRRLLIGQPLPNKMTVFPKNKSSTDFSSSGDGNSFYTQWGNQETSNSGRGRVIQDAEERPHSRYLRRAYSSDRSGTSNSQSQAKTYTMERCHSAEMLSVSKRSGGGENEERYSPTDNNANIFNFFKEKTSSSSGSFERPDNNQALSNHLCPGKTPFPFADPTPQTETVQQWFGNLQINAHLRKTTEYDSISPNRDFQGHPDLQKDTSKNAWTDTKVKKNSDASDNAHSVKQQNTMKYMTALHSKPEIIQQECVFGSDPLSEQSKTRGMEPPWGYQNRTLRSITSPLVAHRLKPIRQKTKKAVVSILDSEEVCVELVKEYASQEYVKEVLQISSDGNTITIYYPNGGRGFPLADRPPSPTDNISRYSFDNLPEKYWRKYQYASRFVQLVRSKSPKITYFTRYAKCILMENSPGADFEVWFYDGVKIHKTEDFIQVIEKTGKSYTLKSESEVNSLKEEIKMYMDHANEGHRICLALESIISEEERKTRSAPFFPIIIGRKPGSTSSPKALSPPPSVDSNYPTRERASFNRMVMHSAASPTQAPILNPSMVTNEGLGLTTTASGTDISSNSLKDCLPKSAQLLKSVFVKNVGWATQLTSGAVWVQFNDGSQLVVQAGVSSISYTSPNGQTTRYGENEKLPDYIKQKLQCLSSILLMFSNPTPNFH

DAPK1 = DAPK1 (Homo sapiens, UniProt P53355)
[3] = target: T7, ABL1(F317L)-phosphorylated (Homo sapiens, UniProt P00519, F317L)
T7 construct: phosphorylated

[4] = target: T8, JAK1(JH2domain-pseudokinase) (Homo sapiens, UniProt P23458)
T8 construct: JH2domain-pseudokinase
T8 sequence (P23458 whole entry): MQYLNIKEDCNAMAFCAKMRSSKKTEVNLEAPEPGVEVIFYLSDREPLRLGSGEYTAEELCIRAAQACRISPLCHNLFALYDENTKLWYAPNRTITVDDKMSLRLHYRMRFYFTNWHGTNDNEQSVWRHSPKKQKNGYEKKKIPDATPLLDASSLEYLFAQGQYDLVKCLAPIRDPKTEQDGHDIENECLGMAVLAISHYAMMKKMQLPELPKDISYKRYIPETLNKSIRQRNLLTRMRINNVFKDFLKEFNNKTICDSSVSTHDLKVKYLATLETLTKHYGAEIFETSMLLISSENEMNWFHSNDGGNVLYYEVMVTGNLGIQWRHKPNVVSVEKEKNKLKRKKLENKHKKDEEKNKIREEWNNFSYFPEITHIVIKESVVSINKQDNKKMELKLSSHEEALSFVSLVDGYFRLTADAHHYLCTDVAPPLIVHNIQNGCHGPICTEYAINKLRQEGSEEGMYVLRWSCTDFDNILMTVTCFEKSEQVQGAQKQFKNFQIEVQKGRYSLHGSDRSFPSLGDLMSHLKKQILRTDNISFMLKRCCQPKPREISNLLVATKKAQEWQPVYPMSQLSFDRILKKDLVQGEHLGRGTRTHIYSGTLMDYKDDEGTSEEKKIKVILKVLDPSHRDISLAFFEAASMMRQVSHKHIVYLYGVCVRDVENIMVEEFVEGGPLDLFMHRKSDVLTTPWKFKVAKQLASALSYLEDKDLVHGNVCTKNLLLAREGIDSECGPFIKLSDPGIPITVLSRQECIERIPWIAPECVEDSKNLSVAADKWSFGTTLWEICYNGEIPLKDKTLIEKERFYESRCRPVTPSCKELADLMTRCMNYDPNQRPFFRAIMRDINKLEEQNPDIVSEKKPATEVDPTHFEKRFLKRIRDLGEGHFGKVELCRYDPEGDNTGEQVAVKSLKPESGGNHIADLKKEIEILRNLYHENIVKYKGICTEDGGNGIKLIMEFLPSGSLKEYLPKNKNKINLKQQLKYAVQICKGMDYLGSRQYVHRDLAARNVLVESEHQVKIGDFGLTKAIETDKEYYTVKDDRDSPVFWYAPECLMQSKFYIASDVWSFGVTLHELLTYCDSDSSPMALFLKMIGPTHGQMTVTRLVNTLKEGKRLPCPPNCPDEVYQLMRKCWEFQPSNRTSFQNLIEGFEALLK

COc1cc2c(cn1)N(C)C(=O)[C@@H](NC(=O)c1nc3n(n1)[C@H](c1ccccc1)CC3)CC2 [GNE684, (S)-N-((S)-7-methoxy-1-methyl-2-oxo-2,3,4,5-tetrahydro-1H-pyrido[3,4-b]azepin-3-yl)-5-phenyl-6,7-dihydro-5H-pyrrolo[1,2-b][1,2,4]triazole-2-carboxamide]
remaining binding at 10 µM (GCN2(Kin.Dom.2,S808G)): 100%
remaining binding at 10 µM [1]: 81%
remaining binding at 10 µM (PIK3CA(I800L)): 96%
remaining binding at 10 µM (FLT3(ITD,D835V)): 84%
remaining binding at 10 µM (NIM1): 89%
remaining binding at 10 µM (MAPKAPK5): 100%
remaining binding at 10 µM (FLT3(N841I)): 100%
remaining binding at 10 µM [2]: 100%
remaining binding at 10 µM (SRPK2): 100%
remaining binding at 10 µM (ARK5): 94%
remaining binding at 10 µM (ACVRL1): 87%
remaining binding at 10 µM (EPHB3): 100%
remaining binding at 10 µM (TXK): 100%
remaining binding at 10 µM (PFTAIRE2): 100%
remaining binding at 10 µM (TSSK3): 96%
remaining binding at 10 µM (CLK1): 90%
remaining binding at 10 µM (DYRK1A): 79%
remaining binding at 10 µM (PLK4): 95%
remaining binding at 10 µM (DAPK1): 88%
remaining binding at 10 µM [3]: 91%
remaining binding at 10 µM [4]: 48%
